Data published in ChEMBL document CHEMBL5042500 (J Med Chem, 2022).
pIC50: −log10 of the molar value. Converted amounts (≈) assume the structure as drawn. The source made the active and inactive calls. The calls are words filed in the database; no cut-off is given here.

Key:
[1] = Intrinsic clearance in human hepatocytes assessed per 10^-6 cells; type: ADME, cell-based, Hepatocyte
[2] = Inhibition of rat SGK1 in presence 500 uM presence of ATP
[3] = Metabolic stability in CD1 mouse liver microsomes assessed as compound degradation in presence of NADPH measured after 20 mins; type: ADME, Microsome; details: read-out: Drug degradation
[4] = Tmax in Lewis rat plasma at 30 mg/kg, po measured after 8 hrs; type: ADME, organism-based
[5] = Metabolic stability in Sprague-Dawley rat liver microsomes assessed as compound degradation in presence of NADPH measured after 20 mins; type: ADME, Microsome; details: read-out: Drug degradation
[6] = AUC (0 to 24 hrs) in Lewis rat femoral head cartilage at 30 mg/kg, po measured after 8 hrs; type: ADME, organism-based, Femur; parameters: route oral, dose 30 mg/kg, time 8 hrs
[7] = AUC (0 to 24 hrs) in Lewis rat plasma at 30 mg/kg, po measured after 8 hrs; type: ADME, organism-based; parameters: route oral, dose 30 mg/kg, time 8 hrs
[8] = target: T1, Serine/threonine-protein kinase Sgk3 (Homo sapiens, UniProt Q96BR1); assay: Inhibition of human SGK3 in presence 500 uM presence of ATP
T1 sequence (Q96BR1 whole entry): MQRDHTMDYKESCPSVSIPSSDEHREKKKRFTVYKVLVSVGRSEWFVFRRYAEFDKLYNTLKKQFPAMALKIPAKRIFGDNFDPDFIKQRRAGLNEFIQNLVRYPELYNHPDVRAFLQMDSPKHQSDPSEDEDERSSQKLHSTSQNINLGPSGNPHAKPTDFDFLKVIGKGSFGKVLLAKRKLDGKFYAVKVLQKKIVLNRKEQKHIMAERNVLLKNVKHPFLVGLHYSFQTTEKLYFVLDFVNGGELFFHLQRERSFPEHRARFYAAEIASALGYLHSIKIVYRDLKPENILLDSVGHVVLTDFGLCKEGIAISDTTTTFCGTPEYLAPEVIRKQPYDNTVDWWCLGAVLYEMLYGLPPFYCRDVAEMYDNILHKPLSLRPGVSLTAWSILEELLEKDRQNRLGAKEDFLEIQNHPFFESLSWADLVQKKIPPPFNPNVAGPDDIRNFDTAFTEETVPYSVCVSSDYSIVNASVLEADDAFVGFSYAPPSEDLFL

[9] = Cmax in Lewis rat femoral head cartilage at 30 mg/kg, po measured after 8 hrs; type: ADME, organism-based, Femur; parameters: route oral, time 8 hrs, dose 30 mg/kg
[10] = Metabolic stability in human liver microsomes assessed as compound degradation in presence of NADPH measured after 20 mins; type: ADME, Microsome; details: read-out: Drug degradation
Salmonella typhimurium = assay: Mutagenicity in Salmonella typhimurium […] in presence of S9 fraction by ames test; type: toxicity, organism-based; details: salmonella enterica subsp. enterica serovar typhimurium
hERG (KCNH2) [11] = target: T2, hERG (KCNH2) (Homo sapiens, UniProt Q12809); assay: Inhibition of human ERG at 10 uM; type: toxicity
[12] = Chemical stability of the compound at pH 7.4 measured after 24 hrs; type: physicochemical; details: buffer, read-out: Stability
Femur = assay: Induction of chondrogenesis in femoral head cartilage isolated from C57BL/6 mouse model of osteoarthritis assessed as reduction in intensity of collagen type x staining incubated for 2 weeks in hypertrophic condition and twice for week medium is changed by immunohistochemical staining based analysis; type: functional, tissue-based
[13] = Effect on chondrocyte hypertrophic differentiation mouse ATDC-5 cells assessed as inhibition of […] gene expression incubated for 2 weeks followed by compound added and every 3 days medium is changed measured after 2 weeks by RT-qPCR analysis; type: functional, cell-based
CYP3A4 = CYP3A4 (Homo sapiens, UniProt P08684); assay: Inhibition of CYP3A4 in human liver microsomes by measuring maximum efficacy; type: ADME
[14] = Aqueous solubility of the compound at pH 7.4; type: physicochemical
Cytochrome P450 3A4 [15] = target: T3, Cytochrome P450 3A4 (Homo sapiens, UniProt P08684); assay: Inhibition of CYP3A4 in human liver microsomes using testosterone as substrate incubated for 30 mins by LC-MS/MS analysis; type: ADME
[16] = AUC (0 to 24 hrs) in Sprague-Dawley rat plasma at 30 mg/kg, po; type: ADME, organism-based; parameters: time < 24 hr, route oral, dose 30 mg/kg
[17] = target: T4, Serine/threonine-protein kinase Sgk1 (Homo sapiens, UniProt O00141); assay: Inhibition of recombinant human SGK1 expressed in baculovirus expression system using 5-carboxyfluorescein -RPRAATF-NH2 as substrate preincubated for 30 mins followed by substrate addition in presence of 10 uM ATP and measured after 60 mins by microfluidics assay
T4 sequence (O00141 whole entry): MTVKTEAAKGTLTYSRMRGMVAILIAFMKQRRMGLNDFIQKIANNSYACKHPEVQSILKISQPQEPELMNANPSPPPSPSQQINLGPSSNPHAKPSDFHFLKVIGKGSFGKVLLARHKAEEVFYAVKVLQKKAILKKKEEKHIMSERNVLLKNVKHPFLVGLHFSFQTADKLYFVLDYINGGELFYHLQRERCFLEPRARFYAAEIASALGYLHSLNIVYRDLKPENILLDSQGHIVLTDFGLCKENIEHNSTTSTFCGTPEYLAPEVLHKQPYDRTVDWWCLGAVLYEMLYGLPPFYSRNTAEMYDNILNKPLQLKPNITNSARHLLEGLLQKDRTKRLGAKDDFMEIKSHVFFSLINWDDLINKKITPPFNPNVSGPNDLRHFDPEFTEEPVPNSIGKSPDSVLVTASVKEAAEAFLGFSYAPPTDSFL

[18] = Permeability in human Caco2 cells at 20 uM incubated for 120 mins by ESI-MS/MS analysis; type: ADME, cell-based; details: Caco-2, read-out: permeability
[19] = Cmax in Sprague-Dawley rat plasma at 30 mg/kg, po; type: ADME, organism-based; parameters: route oral, dose 30 mg/kg
[20] = Tmax in Lewis rat femoral head cartilage at 30 mg/kg, po measured after 8 hrs; type: ADME, organism-based, Femur
Cytochrome P450 3A4 [21] = target: T3, Cytochrome P450 3A4; assay: Inhibition of CYP3A4 in human liver microsomes using midazolam as substrate incubated for 10 mins by LC-MS/MS analysis; type: ADME
[22] = Tmax in Sprague-Dawley rat plasma at 30 mg/kg, po; type: ADME, organism-based
[23] = Half life in Sprague-Dawley rat plasma at 30 mg/kg, po; type: ADME, organism-based
[24] = Distribution coefficient, logD of compound at pH 7.4 by chromatographic analysis; type: physicochemical; details: octanol/water
[25] = target: T5, Serine/threonine-protein kinase Sgk2 (Homo sapiens, UniProt Q9HBY8); assay: Inhibition of human SGK2 in presence 500 uM presence of ATP
T5 sequence (Q9HBY8 whole entry): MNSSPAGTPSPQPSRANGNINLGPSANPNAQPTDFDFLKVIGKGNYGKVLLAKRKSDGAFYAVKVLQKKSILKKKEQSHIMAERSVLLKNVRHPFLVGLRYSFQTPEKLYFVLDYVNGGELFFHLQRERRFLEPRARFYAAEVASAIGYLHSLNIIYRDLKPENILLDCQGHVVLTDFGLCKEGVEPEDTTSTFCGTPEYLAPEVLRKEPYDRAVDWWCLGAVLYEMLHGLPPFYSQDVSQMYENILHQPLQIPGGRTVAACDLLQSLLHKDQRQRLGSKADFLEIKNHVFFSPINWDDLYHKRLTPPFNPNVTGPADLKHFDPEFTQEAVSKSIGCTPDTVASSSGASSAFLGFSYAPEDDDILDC

[26] = target: T6, Serine/threonine-protein kinase Sgk1 (Mus musculus, UniProt Q9WVC6); assay: Inhibition of mouse SGK1 in presence 500 uM presence of ATP
T6 sequence (Q9WVC6 whole entry): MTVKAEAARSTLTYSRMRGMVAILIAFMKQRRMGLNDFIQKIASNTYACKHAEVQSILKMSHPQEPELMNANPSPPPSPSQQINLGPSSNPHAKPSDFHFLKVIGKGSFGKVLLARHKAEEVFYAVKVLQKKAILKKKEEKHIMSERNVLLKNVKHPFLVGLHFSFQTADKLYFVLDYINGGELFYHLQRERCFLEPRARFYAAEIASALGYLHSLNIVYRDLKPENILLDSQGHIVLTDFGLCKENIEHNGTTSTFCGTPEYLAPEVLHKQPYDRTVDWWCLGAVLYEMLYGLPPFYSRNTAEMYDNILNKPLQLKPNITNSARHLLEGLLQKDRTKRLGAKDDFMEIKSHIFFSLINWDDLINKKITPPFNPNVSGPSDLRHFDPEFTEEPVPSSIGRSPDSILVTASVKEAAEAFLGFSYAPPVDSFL

[27] = Cmax in Lewis rat plasma at 30 mg/kg, po measured after 8 hrs; type: ADME, organism-based; parameters: route oral, time 8 hrs, dose 30 mg/kg
[28] = Ratio of AUC(0 to 24 hrs) in femoral head to plasma in rat measured after 2 hrs; type: ADME, Bone/Plasma; details: read-out: Selectivity ratio
[29] = target: T4, Serine/threonine-protein kinase Sgk1; assay: Inhibition of recombinant human SGK1 expressed in baculovirus expression system using 5-carboxyfluorescein -RPRAATF-NH2 as substrate preincubated for 30 mins followed by substrate addition in presence of 500 uM ATP and measured after 60 mins by microfluidics assay
hERG (KCNH2) [30] = target: T2, hERG (KCNH2); assay: Inhibition of human ERG at 1 uM relative to control; type: toxicity

T2 sequence (Q12809 whole entry): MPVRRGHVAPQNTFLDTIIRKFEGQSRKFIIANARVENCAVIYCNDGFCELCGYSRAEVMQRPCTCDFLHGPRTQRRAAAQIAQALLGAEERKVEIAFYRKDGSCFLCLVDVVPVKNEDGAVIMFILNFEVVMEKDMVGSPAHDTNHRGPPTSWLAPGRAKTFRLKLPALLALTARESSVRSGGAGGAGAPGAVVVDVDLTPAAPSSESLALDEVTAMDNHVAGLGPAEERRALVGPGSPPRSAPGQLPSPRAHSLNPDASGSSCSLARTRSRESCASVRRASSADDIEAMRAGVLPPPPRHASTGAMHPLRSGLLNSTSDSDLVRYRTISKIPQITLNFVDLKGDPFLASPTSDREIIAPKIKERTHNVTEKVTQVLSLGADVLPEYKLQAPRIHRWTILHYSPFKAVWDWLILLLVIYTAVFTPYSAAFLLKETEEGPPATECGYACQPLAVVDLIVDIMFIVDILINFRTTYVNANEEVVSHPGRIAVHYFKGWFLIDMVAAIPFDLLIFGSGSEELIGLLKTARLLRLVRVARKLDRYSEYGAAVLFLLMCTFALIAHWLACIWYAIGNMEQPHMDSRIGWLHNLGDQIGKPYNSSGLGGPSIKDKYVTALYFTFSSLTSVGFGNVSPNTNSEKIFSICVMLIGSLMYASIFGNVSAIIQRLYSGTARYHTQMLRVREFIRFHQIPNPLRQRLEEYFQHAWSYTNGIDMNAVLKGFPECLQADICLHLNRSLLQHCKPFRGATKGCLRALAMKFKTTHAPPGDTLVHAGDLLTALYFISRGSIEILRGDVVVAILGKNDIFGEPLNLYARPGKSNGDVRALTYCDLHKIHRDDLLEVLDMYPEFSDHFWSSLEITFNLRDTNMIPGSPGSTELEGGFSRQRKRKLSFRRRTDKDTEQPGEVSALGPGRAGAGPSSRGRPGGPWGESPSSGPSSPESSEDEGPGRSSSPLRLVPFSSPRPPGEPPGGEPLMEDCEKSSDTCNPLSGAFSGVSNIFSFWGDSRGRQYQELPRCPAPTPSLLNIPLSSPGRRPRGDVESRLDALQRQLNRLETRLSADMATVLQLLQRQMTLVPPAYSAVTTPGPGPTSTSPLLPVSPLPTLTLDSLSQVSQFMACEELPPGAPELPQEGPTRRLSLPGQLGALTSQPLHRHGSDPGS
T3 sequence (P08684 whole entry): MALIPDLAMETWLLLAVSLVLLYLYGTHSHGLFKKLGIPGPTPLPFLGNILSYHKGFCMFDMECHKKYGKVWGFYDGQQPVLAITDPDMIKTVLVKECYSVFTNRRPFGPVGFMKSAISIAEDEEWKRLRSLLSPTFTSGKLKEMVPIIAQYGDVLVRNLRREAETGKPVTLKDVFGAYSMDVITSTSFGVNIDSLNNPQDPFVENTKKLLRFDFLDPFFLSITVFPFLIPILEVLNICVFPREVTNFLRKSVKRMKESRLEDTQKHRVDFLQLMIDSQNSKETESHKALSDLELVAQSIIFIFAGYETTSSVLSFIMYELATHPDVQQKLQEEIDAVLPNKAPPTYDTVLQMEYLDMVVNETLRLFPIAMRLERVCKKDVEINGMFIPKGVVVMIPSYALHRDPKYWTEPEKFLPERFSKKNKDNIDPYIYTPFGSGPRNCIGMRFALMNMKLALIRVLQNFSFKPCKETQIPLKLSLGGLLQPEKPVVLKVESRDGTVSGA
Chain of CYP3A4 (P08684 whole entry): as above

- CLH [1]: 0.005 mL/h
- pIC50 [2]: 6.52
- metabolised at 20 min [3]: 3%
- Tmax [4]: 4 h
- metabolised at 20 min [5]: 2%
- AUC(0-t) at 8 h [6]: 5200 ng·h/mL
- AUC(0-t) at 8 h [7]: 33000 ng·h/mL
- pIC50 [8]: 6.68
- Cmax [9]: 890 ng/mL
- metabolised at 20 min [10]: 3%
- remaining at 24 h [12]: 100%
- Emax (CYP3A4): 17%
- solubility [14]: 58 µg/mL (≈ 136 µM)
- pIC50 (Cytochrome P450 3A4 [15]): < 4.52
- AUC(0-t) at 24 h [16]: 110000 ng·h/mL
- pIC50 [17]: 8.52
- Papp at 2 h, 20 µM [18]: 1.5 ×10⁻⁶ cm/s
- Cmax [19]: 10600 ng/mL
- Tmax [20]: 2 h
- pIC50 (Cytochrome P450 3A4 [21]): < 4.52
- Tmax [22]: 4 h
- half-life [23]: 2.8 h
- chromatographic logD [24]: 1.13
- pIC50 [25]: 7.68
- pIC50 [26]: 6.53
- Cmax [27]: 2970 ng/mL
- pIC50 [29]: 8.05
SMILES: N#Cc1ccc(Cl)cc1S(=O)(=O)Nc1ccc(-c2ncc3c(N)n[nH]c3n2)cc1
- Activity (Salmonella typhimurium): Non-Toxic
- inhibition at 10 µM (hERG (KCNH2) [11]): 11%
- Activity (Femur): Active
- pIC50 [13]: 6.26
- Kp at 2 h [28]: 0.047
- inhibition at 1 µM (hERG (KCNH2) [30]): 0%
